Results on four compounds are retold here after ChEMBL document CHEMBL5370572, “Coscinoderines A-J: Trisubstituted Pyridinium-Containing Norterpenoids Isolated from Coscinoderma bakusi, a Tropical Marine Sponge” (J Nat Prod, 2023).

Calls of active or inactive are those of the source. The rule behind the calls is not given here.

The test system of data set [1] is Micrococcus luteus. Briefly: Antibacterial activity against Micrococcus luteus KCTC 1915 assessed as inhibition of bacterial growth at 75 uM. The class given is functional, organism-based.
Another data set concerns HEK293. Briefly: Cytotoxicity against HEK293 cells assessed as reduction in cell proliferation at 1.25 to 80 uM measured after 48 hrs by MTS assay. It counts as toxicity, cell-based. To be noted: human, hek293, 48 h, dose 1.25-80 µM. (Tetrazolium dyes change colour on reduction, which living cells bring about.)
In data set [2] the test system is Micrococcus luteus. The experiment in a line: Antibacterial activity against Micrococcus luteus KCTC 1915 assessed as inhibition of bacterial growth at 72.6 uM. The class given is functional, organism-based.
The next data set deals with Staphylococcus aureus. The experiment in a line: Antibacterial activity against Staphylococcus aureus ATCC 25923 assessed as inhibition of bacterial growth at 45.4 uM. It counts as functional, organism-based.

For `C=C(C)[C@@]1(CC/C(C)=C/CCCc2ccc(CC(=O)O)c[n+]2CC(C)C)CCC[C@H]1C`, the inhibition result in the data set with Micrococcus luteus [1] was “Active”. Further, in the data set on HEK293, the Activity result is “Non-Toxic”. On to `CC1=C(CC/C(C)=C/CCCc2ccc(CC(=O)O)c[n+]2CCS(=O)(=O)O)C(C)(C)CCC1`, for which the Activity entry with HEK293 was “Non-Toxic”. As to `C=C(C)[C@@]1(CC/C(C)=C/CCCc2ccc(CC(=O)O)c[n+]2C[C@@H](C)CC)CCC[C@H]1C`, the inhibition entry in the data set with Micrococcus luteus [2] and in the data set with Staphylococcus aureus was “Active” each time. Moreover, in the data set with HEK293, the Activity result was “Non-Toxic”.

Turning to `CC(C)=CCC/C(C)=C/CC/C(C)=C/CCCc1ccc(CC(=O)O)c[n+]1CC(=O)O`, in the data set with HEK293, the Activity result is given as “Non-Toxic”.
